Residues, ends and D or L forms follow the SMILES beside them.
Biological target: IL-17RA/IL17RC dimerization induced by IL-17A (Homo sapiens, UniProt Q16552)
Experiment: IL-17RA/IL17RC dimerization assay in response to IL-17A (PathHunter Cytokine Receptor Assay)
Type: cell-based
Details: IL-17A at EC80; read-out: IC50 in IL-17RA/IL7RC dimerization assay
Outline: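 Receptor dimerization was read as chemiluminescence from complemented β-galactosidase after IL-17A at EC80 concentration for 6–16 h at 37 °C. Peptides were added 60 min before agonist, at 37 °C or room temperature, with 1% vehicle. Percent inhibition used the EC80-stimulated and vehicle wells as references.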

Sequence of IL-17RA/IL17RC dimerization induced by IL-17A (Q16552 24-155): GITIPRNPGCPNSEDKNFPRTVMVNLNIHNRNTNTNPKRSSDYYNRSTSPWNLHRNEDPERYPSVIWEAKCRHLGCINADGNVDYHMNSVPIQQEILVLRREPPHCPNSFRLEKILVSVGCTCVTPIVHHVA

Question: For CC(=O)N[C@H](C(=O)N[C@@H](Cc1c[nH]cn1)C(=O)N[C@H](C(=O)N[C@H](C(=O)N[C@H](C(=O)N1CCC[C@H]1C(=O)N[C@@H](CCC(N)=O)C(=O)N[C@@H](CCC(=O)O)C(=O)N[C@@H](CC(C)C)C(=O)N[C@@H](Cc1ccccc1)C(=O)N[C@@H](CCC(=O)O)C(=O)N[C@@H](Cc1c[nH]c2ccccc12)C(=O)N[C@H](C(=O)N[C@@H](CCCNC(=N)N)C(=O)N[C@@H](CCCNC(=N)N)C(N)=O)C(C)C)C(C)C)[C@@H](C)O)C(C)C)C(C)C [SEQ ID NO: 225] (Ac-VHVTVPQELFEWVRR-NH2), which IC50 is on record?
Answer: Its IC50 is under 10 µM.

Question: With CC(=O)N[C@H](C(=O)N[C@@H](Cc1c[nH]cn1)C(=O)N[C@H](C(=O)N[C@H](C(=O)N[C@H](C(=O)N1CCC[C@H]1C(=O)N[C@@H](CCC(N)=O)C(=O)N[C@@H](CCC(=O)O)C(=O)N[C@@H](CC(C)C)C(=O)N[C@@H](Cc1ccc(O)cc1)C(=O)N[C@@H](CCC(=O)O)C(=O)N[C@@H](Cc1c[nH]c2ccccc12)C(=O)N[C@H](C(=O)N[C@@H](CCCNC(=N)N)C(=O)N[C@@H](CCCNC(=N)N)C(N)=O)C(C)C)C(C)C)[C@@H](C)O)C(C)C)C(C)C [SEQ ID NO: 226] (Ac-VHVTVPQELYEWVRR-NH2) as the compound, how does the IC50 read?
Answer: Its IC50 is under 10 µM.

Question: CC(=O)N[C@H](C(=O)N[C@@H](Cc1c[nH]cn1)C(=O)N[C@H](C(=O)N[C@H](C(=O)N[C@H](C(=O)N1CCC[C@H]1C(=O)N[C@@H](CCC(N)=O)C(=O)N[C@@H](CCC(=O)O)C(=O)N[C@@H](CC(C)C)C(=O)N[C@@H](Cc1c[nH]c2ccccc12)C(=O)N[C@@H](CCC(=O)O)C(=O)N[C@@H](Cc1c[nH]c2ccccc12)C(=O)N[C@H](C(=O)N[C@@H](CCC(=O)O)C(=O)N[C@@H](CCC(=O)O)C(N)=O)C(C)C)C(C)C)[C@@H](C)O)C(C)C)C(C)C [SEQ ID NO: 227] (Ac-VHVTVPQELWEWVEE-NH2) was tested. Which IC50 did it give?
Answer: The IC50 was under 10 µM.

Question: For CC(=O)N[C@H](C(=O)N[C@@H](Cc1c[nH]cn1)C(=O)N[C@H](C(=O)N[C@H](C(=O)N[C@H](C(=O)N1CCC[C@H]1C(=O)N[C@@H](CCC(N)=O)C(=O)N[C@@H](CCC(=O)O)C(=O)N[C@@H](CC(C)C)C(=O)N[C@@H](Cc1ccccc1)C(=O)N[C@@H](CCC(=O)O)C(=O)N[C@@H](Cc1c[nH]c2ccccc12)C(=O)N[C@H](C(=O)N[C@@H](CCC(=O)O)C(=O)N[C@@H](CCC(=O)O)C(N)=O)C(C)C)C(C)C)[C@@H](C)O)C(C)C)C(C)C [SEQ ID NO: 228] (Ac-VHVTVPQELFEWVEE-NH2), which IC50 is on record?
Answer: The IC50 was under 10 µM.

Question: For CC(=O)N[C@H](C(=O)N[C@@H](Cc1c[nH]cn1)C(=O)N[C@H](C(=O)N[C@H](C(=O)N[C@H](C(=O)N1CCC[C@H]1C(=O)N[C@@H](CCC(N)=O)C(=O)N[C@@H](CCC(=O)O)C(=O)N[C@@H](CC(C)C)C(=O)N[C@@H](Cc1ccc(O)cc1)C(=O)N[C@@H](CCC(=O)O)C(=O)N[C@@H](Cc1c[nH]c2ccccc12)C(=O)N[C@H](C(=O)N[C@@H](CCC(=O)O)C(=O)N[C@@H](CCC(=O)O)C(N)=O)C(C)C)C(C)C)[C@@H](C)O)C(C)C)C(C)C [SEQ ID NO: 229] (Ac-VHVTVPQELYEWVEE-NH2), which IC50 is on record?
Answer: The IC50 was under 10 µM.

Question: CC[C@H](C)[C@H](NC(=O)[C@H](CO)NC(=O)[C@@H](NC(=O)[C@H](Cc1c[nH]cn1)NC(=O)[C@@H](NC(C)=O)C(C)C)C(C)C)C(=O)N1CCC[C@H]1C(=O)N[C@@H](CCC(N)=O)C(=O)N[C@@H](CCC(=O)O)C(=O)N[C@@H](CC(C)C)C(=O)N[C@@H](Cc1c[nH]c2ccccc12)C(=O)N[C@@H](CCC(=O)O)C(=O)N[C@@H](Cc1c[nH]c2ccccc12)C(=O)N[C@H](C(=O)N[C@@H](CCCNC(=N)N)C(=O)N[C@@H](CCCNC(=N)N)C(N)=O)C(C)C [SEQ ID NO: 230] (Ac-VHVSIPQELWEWVRR-NH2) was tested. Which IC50 did it give?
Answer: Its IC50 is under 10 µM.

Question: With CC(=O)N[C@H](C(=O)N[C@@H](Cc1c[nH]cn1)C(=O)N[C@H](C(=O)N[C@@H](CO)C(=O)N[C@H](C(=O)N1CCC[C@H]1C(=O)N[C@@H](CCC(N)=O)C(=O)N[C@@H](CCC(=O)O)C(=O)N[C@@H](CC(C)C)C(=O)N[C@@H](Cc1c[nH]c2ccccc12)C(=O)N[C@@H](CCC(=O)O)C(=O)N[C@@H](Cc1c[nH]c2ccccc12)C(=O)N[C@H](C(=O)N[C@@H](CCCNC(=N)N)C(=O)N[C@@H](CCCNC(=N)N)C(N)=O)C(C)C)C(C)C)C(C)C)C(C)C [SEQ ID NO: 231] (Ac-VHVSVPQELWEWVRR-NH2) as the compound, how does the IC50 read?
Answer: Its IC50 is under 10 µM.

Question: For CC(=O)N[C@H](C(=O)N[C@@H](Cc1c[nH]cn1)C(=O)N[C@H](C(=O)N[C@@H](CO)C(=O)N[C@H](C(=O)N1CCC[C@H]1C(=O)N[C@@H](CCC(N)=O)C(=O)N[C@@H](CCC(=O)O)C(=O)N[C@@H](CC(C)C)C(=O)N[C@@H](Cc1ccc(O)cc1)C(=O)N[C@@H](CCC(=O)O)C(=O)N[C@@H](Cc1c[nH]c2ccccc12)C(=O)N[C@H](C(=O)N[C@@H](CCCNC(=N)N)C(=O)N[C@@H](CCCNC(=N)N)C(N)=O)C(C)C)C(C)C)C(C)C)C(C)C [SEQ ID NO: 232] (Ac-VHVSVPQELYEWVRR-NH2), which IC50 is on record?
Answer: The IC50 was under 10 µM.

Question: With CC[C@H](C)[C@H](NC(=O)[C@@H](NC(=O)[C@@H](NC(=O)[C@H](CCCNC(=N)N)NC(=O)[C@@H](NC(C)=O)C(C)C)C(C)C)[C@@H](C)O)C(=O)N1CCC[C@H]1C(=O)N[C@@H](CCC(N)=O)C(=O)N[C@@H](CCC(=O)O)C(=O)N[C@@H](CC(C)C)C(=O)N[C@@H](Cc1c[nH]c2ccccc12)C(=O)N[C@@H](CCC(=O)O)C(=O)N[C@@H](Cc1c[nH]c2ccccc12)C(=O)N[C@H](C(=O)N[C@@H](CCCNC(=N)N)C(=O)N[C@@H](CCCNC(=N)N)C(N)=O)C(C)C [SEQ ID NO: 233] (Ac-VRVTIPQELWEWVRR-NH2) as the compound, how does the IC50 read?
Answer: The IC50 was under 10 µM.

Question: How did the IC50 turn out when CC(=O)N[C@H](C(=O)N[C@@H](CCCNC(=N)N)C(=O)N[C@H](C(=O)N[C@H](C(=O)N[C@H](C(=O)N1CCC[C@H]1C(=O)N[C@@H](CCC(N)=O)C(=O)N[C@@H](CCC(=O)O)C(=O)N[C@@H](CC(C)C)C(=O)N[C@@H](Cc1ccc(O)cc1)C(=O)N[C@@H](CCC(=O)O)C(=O)N[C@@H](Cc1c[nH]c2ccccc12)C(=O)N[C@H](C(=O)N[C@@H](CCCNC(=N)N)C(=O)N[C@@H](CCCNC(=N)N)C(N)=O)C(C)C)C(C)C)[C@@H](C)O)C(C)C)C(C)C [SEQ ID NO: 234] (Ac-VRVTVPQELYEWVRR-NH2) was run?
Answer: Its IC50 is under 10 µM.

Question: For CC(=O)N[C@H](C(=O)N[C@@H](CCCNC(=N)N)C(=O)N[C@H](C(=O)N[C@H](C(=O)N[C@H](C(=O)N1CCC[C@H]1C(=O)N[C@@H](CCC(N)=O)C(=O)N[C@@H](CCC(=O)O)C(=O)N[C@@H](CC(C)C)C(=O)N[C@@H](Cc1c[nH]c2ccccc12)C(=O)N[C@@H](CCC(=O)O)C(=O)N[C@@H](Cc1c[nH]c2ccccc12)C(=O)N[C@H](C(=O)N[C@@H](CCCNC(=N)N)C(=O)N[C@@H](CCCNC(=N)N)C(N)=O)C(C)C)C(C)C)[C@@H](C)O)C(C)C)C(C)C [SEQ ID NO: 235] (Ac-VRVTVPQELWEWVRR-NH2), which IC50 is on record?
Answer: The IC50 was under 10 µM.

Question: For CC[C@H](C)[C@H](NC(=O)[C@H](CCC(=O)O)NC(=O)[C@H](CCC(N)=O)NC(=O)[C@@H]1CCCN1C(=O)[C@@H](NC(=O)[C@@H](NC(=O)[C@@H](NC(=O)[C@H](Cc1c[nH]cn1)NC(=O)[C@@H](NC(C)=O)C(C)C)C(C)C)[C@@H](C)O)C(C)C)C(=O)N[C@@H](Cc1ccc(O)cc1)C(=O)N[C@@H](CCC(=O)O)C(=O)N[C@@H](Cc1c[nH]c2ccccc12)C(=O)N[C@H](C(=O)N[C@@H](CCCNC(=N)N)C(=O)N[C@@H](CCCNC(=N)N)C(N)=O)C(C)C [SEQ ID NO: 236] (Ac-VHVTVPQEIYEWVRR-NH2), which IC50 is on record?
Answer: Its IC50 is under 10 µM.

Question: With CC[C@H](C)[C@H](NC(=O)[C@H](CCC(=O)O)NC(=O)[C@H](CCC(N)=O)NC(=O)[C@@H]1CCCN1C(=O)[C@@H](NC(=O)[C@@H](NC(=O)[C@@H](NC(=O)[C@H](Cc1c[nH]cn1)NC(=O)[C@@H](NC(C)=O)C(C)C)C(C)C)[C@@H](C)O)[C@@H](C)CC)C(=O)N[C@@H](Cc1c[nH]c2ccccc12)C(=O)N[C@@H](CCC(=O)O)C(=O)N[C@@H](Cc1c[nH]c2ccccc12)C(=O)N[C@H](C(=O)N[C@@H](CCCNC(=N)N)C(=O)N[C@@H](CCCNC(=N)N)C(N)=O)C(C)C [SEQ ID NO: 237] (Ac-VHVTIPQEIWEWVRR-NH2) as the compound, how does the IC50 read?
Answer: Its IC50 is under 10 µM.

Question: For CC(=O)N[C@H](C(=O)N[C@@H](Cc1c[nH]cn1)C(=O)N[C@@H](Cc1ccccc1)C(=O)N[C@H](C(=O)N[C@H](C(=O)N1CCC[C@H]1C(=O)N[C@@H](CCC(N)=O)C(=O)N[C@@H](CCC(=O)O)C(=O)N[C@@H](CC(C)C)C(=O)N[C@@H](Cc1ccc(O)cc1)C(=O)N[C@@H](CCC(=O)O)C(=O)N[C@@H](Cc1c[nH]c2ccccc12)C(=O)N[C@H](C(=O)N[C@@H](CCCNC(=N)N)C(=O)N[C@@H](CCCNC(=N)N)C(N)=O)C(C)C)C(C)C)[C@@H](C)O)C(C)C [SEQ ID NO: 238] (Ac-VHFTVPQELYEWVRR-NH2), which IC50 is on record?
Answer: The IC50 was under 10 µM.

Question: Which IC50 does the source give for CC[C@H](C)[C@H](NC(=O)[C@H](Cc1c[nH]c2ccccc12)NC(=O)[C@H](CC(=O)O)NC(=O)[C@H](Cc1c[nH]c2ccccc12)NC(=O)[C@H](CC(C)C)NC(=O)[C@H](CC(=O)O)NC(=O)[C@H](C)NC(=O)[C@@H]1CCCN1C(=O)[C@@H](NC(=O)[C@H](CO)NC(=O)[C@@H](NC(=O)[C@H](CCCCN)NC(=O)[C@@H](NC(C)=O)C(C)C)[C@@H](C)CC)C(C)C)C(=O)N[C@@H](CC(N)=O)C(=O)N[C@@H](CCCCN)C(N)=O [SEQ ID NO: 239] (Ac-VKISVPADLWDWINK-NH2) here?
Answer: The IC50 was under 10 µM.

Question: For CC[C@H](C)[C@H](NC(=O)[C@H](Cc1c[nH]c2ccccc12)NC(=O)[C@H](CC(=O)O)NC(=O)[C@H](Cc1c[nH]c2ccccc12)NC(=O)[C@H](CC(C)C)NC(=O)[C@H](CC(=O)O)NC(=O)[C@H](C)NC(=O)[C@@H]1CCCN1C(=O)[C@@H](NC(=O)[C@H](CO)NC(=O)[C@@H](NC(=O)[C@H](CCCNC(=N)N)NC(=O)[C@H](CC(C)C)NC(C)=O)[C@@H](C)CC)C(C)C)C(=O)N[C@@H](CC(N)=O)C(=O)N[C@@H](CCCCN)C(N)=O [SEQ ID NO: 240] (Ac-LRISVPADLWDWINK-NH2), which IC50 is on record?
Answer: Its IC50 is under 10 µM.

Question: CC[C@H](C)[C@H](NC(=O)[C@H](Cc1c[nH]c2ccccc12)NC(=O)[C@H](CC(=O)O)NC(=O)[C@H](Cc1c[nH]c2ccccc12)NC(=O)[C@H](CC(C)C)NC(=O)[C@H](CC(=O)O)NC(=O)[C@H](C)NC(=O)[C@@H]1CCCN1C(=O)[C@@H](NC(=O)[C@H](Cc1ccc(O)cc1)NC(=O)[C@@H](NC(=O)[C@H](CCCNC(=N)N)NC(=O)[C@H](CC(C)C)NC(C)=O)[C@@H](C)CC)C(C)C)C(=O)N[C@@H](CC(N)=O)C(=O)N[C@@H](CCCCN)C(N)=O [SEQ ID NO: 241] (Ac-LRIYVPADLWDWINK-NH2) was tested. Which IC50 did it give?
Answer: Its IC50 is under 10 µM.
